{
  "source": "patent US6399581B1",
  "about": "“Compound possessing potent thrombin receptor antagonist activity” (Harbor Branch Oceanographic Institution, Inc., priority 1999, dated 2002)",
  "key": {"rat mast cells": {"system": "rat mast cells", "conditions": "cited from earlier work"}, "C5 a-receptor": {"molecular_target": "T1, C5 a-receptor (Homo sapiens, UniProt P21730)", "T1 sequence (P21730 1-350)": "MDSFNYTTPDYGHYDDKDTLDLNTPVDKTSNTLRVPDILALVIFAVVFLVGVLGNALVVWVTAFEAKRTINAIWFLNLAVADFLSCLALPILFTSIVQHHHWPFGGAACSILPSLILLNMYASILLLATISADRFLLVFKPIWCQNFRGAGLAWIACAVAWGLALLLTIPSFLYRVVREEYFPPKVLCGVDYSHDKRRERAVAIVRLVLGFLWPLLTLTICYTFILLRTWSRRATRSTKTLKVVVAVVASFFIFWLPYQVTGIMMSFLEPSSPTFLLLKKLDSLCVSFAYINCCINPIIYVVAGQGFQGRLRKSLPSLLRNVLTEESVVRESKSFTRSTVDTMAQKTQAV", "conditions": "cited from earlier work"}, "thrombin receptor": {"molecular_target": "T2, thrombin receptor (Homo sapiens, UniProt P25116)", "T2 construct": "HeLa cells, which constitutively express the thrombin receptor; endogenous in cells; host or cells: HeLa cells", "T2 sequence (P25116 22-425)": "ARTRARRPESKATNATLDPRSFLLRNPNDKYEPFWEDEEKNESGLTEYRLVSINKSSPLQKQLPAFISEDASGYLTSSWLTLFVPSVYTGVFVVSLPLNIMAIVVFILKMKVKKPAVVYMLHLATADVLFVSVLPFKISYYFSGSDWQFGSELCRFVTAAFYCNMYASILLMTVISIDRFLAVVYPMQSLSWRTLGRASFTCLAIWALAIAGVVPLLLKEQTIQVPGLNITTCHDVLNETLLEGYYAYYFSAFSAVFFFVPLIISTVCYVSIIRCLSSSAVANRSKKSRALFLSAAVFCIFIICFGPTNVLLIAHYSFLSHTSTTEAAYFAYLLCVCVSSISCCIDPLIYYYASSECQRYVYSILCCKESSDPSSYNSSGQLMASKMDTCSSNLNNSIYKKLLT", "experiment": "Thrombin receptor antagonist assay using FLIPR: thrombin-induced intracellular calcium mobilization in HeLa cells", "assay_type": "cell-based", "conditions": "fluo-3, thrombin 0.3 U/ml", "experimental": "Tests were conducted of inhibition of thrombin-induced calcium mobilization in HeLa cells (see FIG. 2). […] The HPLC profiles of the extracts were very similar, and in both cases the biological activity resided in the same chromatographic fractions indicating common active principles. One of these was fully deconvoluted, and several active components were isolated. These were all glycosides of penasterol though differing in the number of sugar residues attached at the C-1 position.\nThrombin receptor antagonist assay using FLIPR (fluorescence)imaging plate reader: HeLa cells were suspended in complete media and the cell density measured then adjusted to give a final cell density of 2.0×10^5/ml. 100 μl of cell suspension was dispensed into 96-well microtitre plates using a Multipdrop 96/384 well plate dispenser. […] Fluorescence output was read every 1 second for the first 20 seconds then every 5 seconds for a further 30 seconds.\nAn assay was conducted based upon measurement of thrombin-inducedintracellular calcium mobilization in HeLa cells, which constitutively express the thrombin receptor. Intracellular calcium flux was measured using the fluorescent dye fluo-3' which in the absence of calcium ions fluoresces only weakly, but in the presence of calcium increases fluorescence by approximately 100-fold. Fluorescence was measured using a fluorescence imaging plate reader (FLIPR; see FIG. 2)."}, "[1]": {"system": "liver hepatocyte (HepG2) cells", "experiment": "Toxicity against liver hepatocyte (HepG2) cells", "assay_type": "cell-based"}, "[2]": {"molecular_target": "T3, protease-activated receptor 1 (PAR-1) (Homo sapiens, UniProt P25116)", "T3 construct": "Blood was withdrawn from the antecubal vein of healthy human volunteers; endogenous in cells; host or cells: washed platelets from blood of healthy human volunteers", "T3 sequence (P25116 22-425)": "T2 sequence (P25116 22-425)", "experiment": "Thrombin-induced platelet aggregation, human washed platelets", "assay_type": "cell-based", "conditions": "thrombin 0.1 U/ml", "experimental": "(§1) Platelet aggregation assay: Blood was withdrawn from the antecubal vein of healthy human volunteers who had taken no medication for 14 days. The blood (9 volumes) was anti-coagulated with 1 volume of 3.8% w/v tri-sodium citrate, to give a final citrate concentration of 12.9 mM. To each 20 ml volume of anti-coagulated blood 50 μl of a 10 μg/ml prostacyclin (PGI2) solution was added to prevent activation during the platelet isolation process. The prostacyclin-treated blood was then centrifuged (1280×g; 4 minutes) to yield platelet-rich plasma (PRP). […] The supernatant (platelet-poor plasma) was discarded and the platelets resuspended in a Hepes buffer (NaCl (8 g/l); NaHCO3 (1 g/l); KCl (0.2 g/l); KH2 PO4 (0.1 g/l); Hepes (1.2 g/l); D-Glucose (1 g/l) adjusted to a pH of 6.4. The resultant platelet suspension was again centrifuged (1280×g; 8 minutes) to pellet the platelets. The supernatant was discarded and the platelets resuspended in a Hepes buffer of the same composition but adjusted to a pH of 7.4. The platelet count was then adjusted to 300,000 platelets/μl, following quantification on a Sysmex K1000 Haematological analyser and CaCl2 (1 mM) and MgCl2 (0.5 mM) were added back. […]\n(§2) Platelet aggregation, in a human washed platelet preparation, was quantified using an optical aggregometer. […]"}, "[3]": {"system": "human washed platelet preparation", "experiment": "U-46619-induced platelet aggregation, human washed platelets", "assay_type": "cell-based", "conditions": "U-46619 3 μM", "experimental": "as §1, §2"}, "[4]": {"molecular_target": "T3, protease-activated receptor 1 (PAR-1)", "experiment": "SFLLRN-induced platelet aggregation, human washed platelets", "assay_type": "cell-based", "experimental": "as §1, §2"}},
  "data": [
    {"compound": "CC(=O)O[C@H]1CC[C@]2(C)C3=C(CC[C@H]2C1(C)C)[C@]1(C(=O)O)CC[C@H]([C@H](C)CCC=C(C)C)[C@@]1(C)CC3", "note": "[acetylpenasterol]", "values": [
      {"measurement": "Inhibition of IgE-dependent histamine release", "setting": "rat mast cells", "result": "inhibit IgE-dependent histamine release"}
    ]},
    {"compound": "Eryloside E", "values": [
      {"measurement": "Antagonism of C5a-receptor binding", "setting": "C5 a-receptor", "result": "antagonist of C5 a-receptorbinding"}
    ]},
    {"compound": "CC(C)=CCC[C@@H](C)[C@H]1CC[C@@]2(C(=O)O)C3=C(CC[C@]12C)[C@@]1(C)CCC(=O)C(C)(C)[C@@H]1CC3", "note": "[penasterone]", "values": [
      {"measurement": "Inhibition of IgE-dependent histamine release", "setting": "rat mast cells", "result": "inhibit IgE-dependent histamine release"}
    ]},
    {"compound": "CC(C)=CCC[C@@H](C)[C@H]1CC[C@@]2(C(=O)O)C3=C(CC[C@]12C)[C@@]1(C)CC[C@H](O[C@@H]2OC[C@H](O)[C@H](O)[C@H]2O[C@@H]2O[C@H](CO)[C@H](O)[C@H](O)[C@H]2O)C(C)(C)[C@@H]1CC3", "note": "[Eryloside F, eryloside F]", "values": [
      {"measurement": "Inhibition of thrombin-induced calcium mobilization (thrombin receptor antagonist activity)", "setting": "thrombin receptor", "result": "most potent activity"},
      {"measurement": "Toxicity against HepG2 cells", "setting": "[1]", "result": "low toxicity"},
      {"measurement": "Inhibitory potency against thrombin-induced platelet aggregation relative to SFLLRN-induced, fold lower", "setting": "[2]", "result": "approximately 20 fold"},
      {"measurement": "IC50, inhibition of U-46619-induced platelet aggregation", "setting": "[3]", "result": 1.7, "unit": "µg/mL"},
      {"measurement": "Fold more potent against SFLLRN- than against U-46619-induced platelet aggregation", "setting": "[4]; SFLLRN 3 μM vs U-46619 3 μM", "result": "approximately 6 fold"},
      {"measurement": "IC50, inhibition of SFLLRN-induced platelet aggregation", "setting": "[4]; SFLLRN 3 μM, human washed platelets", "result": 0.3, "unit": "µg/mL"}
    ]},
    {"compound": "Penasterol", "values": [
      {"measurement": "Inhibition of IgE-dependent histamine release", "setting": "rat mast cells", "result": "inhibit IgE-dependent histamine release"}
    ]}
  ]
}
